From patent US8673882B2, “Inhibitors of autotaxin” (University of Tennessee Research Foundation, priority 2011, dated 2014) come the findings set out here.

Experiment [1] relates to MM1 hepatocarcinoma cells. The experiment in a line: Invasion of HUVEC monolayer by MM1 cells. It counts as cell-based, rat. Particulars: for LPC-dependent invasion of the HUVEC monolayer: 1.5 μM LPC, FIG. 14; for basal rate of invasion: compounds alone, without LPC. An excerpt:
(§1) Cancer metastasis is a complex process that cannon be accurately modeled in vitro. Models that utilize cellular monolayers for the invasion of carcinoma cell come the closest to the situation in vivo. Two different cell monolayers, mouse mesothelium and human vascular endothelium were used to examine the role of ATX in the invasion of MM1 hepatocarcinoma cells and the reduction of such invasion by the chemical compounds of the present application. The mesothelial monolayer is an accepted model for invasion of body cavities lined by serous cells whereas, the HUVEC monolayer is considered to be an in vitro model of hematogenous invasion of carcinomas.
(§2) Highly invasive MM1 cells originally isolated from the AH130 rat hepatoma cells were utilized in these studies. The cells were grown in suspension in DMEM supplemented with 10% fetal bovine serum, 2 mM glutamine, 100 units/ml penicillin and 10 μg/ml streptoinycin. Mesothelial cells were isolated and cultured from C57BL/6 mice. Human umbilical cord vascular endothelial cells (HUVEC) were obtained from VEC Technologies Inc., (Rensselaer, N.Y., USA) and were grown in MCDB-131 complete medium containing 10% fetal bovine serum. 90 μg/ml heparin, 10 ng/ml EGF, 1 μg/ml hydrocortisone, 0.2 mg/ml EndoGrowth supplement, 100 units/ml penicillin G, 100 μg/ml streptomycin and 25 μg/ml amphotericin B (all from VEC Technologies). Tumor cell invasion was performed by seeding 1.3×10^5 HUVECs (passage 7) into each well of a 12-well plate pre-coated with 0.2% gelatin (Sigma) and cultured for 2 days to form a confluent monolayer. Mesothelial cells harvested from two-three mice were initially plated in 6-well plates and grown to confluency in DMEM medium supplemented with 10% fetal bovine serum in the presence of 100 units/ml penicillin G and 10 μg/ml streptomycin. When confluent, the mesothelial cells were split into three equal aliquots (˜5×10^4 cells each) and plated to three wells of a 12-well plate and grown to confluence.
Invasion of MM1 cells of Example 53 was determined and the effect of compounds of the present application in reducing the invasion was determined. For all invasion assays, MM1 cells were pre-stained with 2 μg/ml calcein AM (Invitrogen, USA) for 2 h, rinsed once, and seeded at a density of 5×10^4 cells/well over the monolayers. Tumor cells were left to invade the HUVEC monolayer for 24 h in MCDB-131 complete media containing 1% serum with or without addition of 1.5 μM LPC. MM1 cells were plated on the mesothelial monolayers in 2% fetal bovine serum-supplemented DMEM medium in the presence of 100 units/ml penicillin G and 10 μg/ml streptomycin with or without 1.5 μM LPC (5 μM for the mesothelium cells) and invasion was allowed to proceed for 20 h. The day after MM1 cell seeding, non-invaded tumor cells were removed by repeated five rinses of the HUVEC monolayer (three rinses for the mesothelial monolayers) with PBS (containing Ca^2+ and Mg^2+) followed by fixation with 10% buffered formalin. The number of tumor cells that penetrated the monolayer was photographed under a NIKON TiU inverted microscope using phase-contrast and fluorescence illumination in a minimum of five non-overlapping fields at 100× magnification. The fluorescent images were overlayed on top of the phase contrast images using the Elements BR software (version 3.1x) and the invaded MM1 cells showing the characteristic flattened morphology in the plane of focus underneath the monolayer were counted. […]

The subject of experiment [2] is MM1 hepatocarcinoma cells. Put plainly: Invasion of mesothelial cell monolayer by MM1 cells. Conditions: with LPC; FIG. 12 panel E. It counts as cell-based, rat.
Description: as §1, §2
Invasion of MM1 cells of Example 53 was determined and the effect of compounds of the present application in reducing the invasion was determined. For all invasion assays, MM1 cells were pre-stained with 2 μg/ml calcein AM (Invitrogen, USA) for 2 h, rinsed once, and seeded at a density of 5×10^4 cells/well over the monolayers. […] The number of tumor cells that penetrated the monolayer was photographed under a NIKON TiU inverted microscope using phase-contrast and fluorescence illumination in a minimum of five non-overlapping fields at 100× magnification. The fluorescent images were overlayed on top of the phase contrast images using the Elements BR software (version 3.1x) and the invaded MM1 cells showing the characteristic flattened morphology in the plane of focus underneath the monolayer were counted. […]

The target in another experiment is T1, NPP7 (Homo sapiens, UniProt Q6UWV6).
T1 sequence (Q6UWV6 22-458): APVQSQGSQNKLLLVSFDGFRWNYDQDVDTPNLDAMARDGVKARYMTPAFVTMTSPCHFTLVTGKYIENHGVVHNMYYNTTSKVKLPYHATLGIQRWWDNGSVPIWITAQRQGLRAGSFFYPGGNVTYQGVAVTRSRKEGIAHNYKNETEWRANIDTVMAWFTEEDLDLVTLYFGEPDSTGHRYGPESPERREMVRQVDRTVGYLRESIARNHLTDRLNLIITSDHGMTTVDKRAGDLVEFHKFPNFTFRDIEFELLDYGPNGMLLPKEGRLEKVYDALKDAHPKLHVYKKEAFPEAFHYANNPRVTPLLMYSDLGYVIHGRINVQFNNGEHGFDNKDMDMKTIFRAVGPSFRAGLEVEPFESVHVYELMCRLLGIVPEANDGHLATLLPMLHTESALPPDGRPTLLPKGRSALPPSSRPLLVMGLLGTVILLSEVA
The experiment in a line: NPP-7 inhibition assay (pNPPC substrate). Conditions: 10 μM compound; 8.3 nM enzyme; 10 μM pNPPC; read-out: NPP7 Activity, % control (10 μM). The format is biochemical. As for the experimental part: NPP6 and NPP7 are the only NPP isoforms other than ATX that are known to utilize lysophospholipid phosphodiesters as substrates. Therefore, the specificity of the chemical compounds of the invention regarding ATX was addressed by determining the activity of NPP6 and NPP7 in the presence and absence of these analogs.
Inhibition of NPP6 and NPP7 was evaluated using recombinant, purified proteins, the synthetic substrate para-nitrophenylphosphocholine (pNPPC) and a Synergy II plate reader (BioTek, Winooski, Vt.). The final concentration of each enzyme was 8.3 nM and pNPPC was 10 μM. All analogs were tested at single 10 μM concentrations. Absorbance of liberated para-nitrophenol at 405 nm was determined up to 1 hour (where responses were linear) and was normalized to vehicle control.

Experiment [3] has as its target recombinant, purified human ATX (Homo sapiens, UniProt Q13822). Put plainly: Mechanism of autotaxin inhibition (IC50, Ki, Ki′; FS-3 hydrolysis). The format is biochemical. Particulars: for pIC50: 8.3 nM ATX, 1 μM FS-3, 15 μM BSA; for ATX Mechanism of inhibition: FS-3 0.3 μM to 20 μM, inhibitor 0, 0.5× and 2× IC50. As for the experimental part:
The mechanism of inhibition of ATX was determined using recombinant, purified human ATX and FS-3. Final ATX and FS-3 concentrations were 8.3 nM and 1 μM, respectively and the assay buffer with 15 μM fatty acid tree BSA. To calculate IC50, full dose responses were determined for the test compounds. […] Simultaneous non-linear regression, using, WinNonLin® 6.1 (Pharsight, Mountain View, Calif.) was used to assign the mechanism of inhibition. Ki and Ki′ values (the affinity for free enzyme and enzyme substrate complex, respectively) were determined by calculating the lowest averaged percent residuals for each mechanism derived from curve fitting using the Michealis-Menten equations for competitive, uncompetitive, mixed-mode, and non-competitive inhibition.

Setting [4] is: affinity for enzyme substrate complex.

Each structure is given as a SMILES string. pIC50, pKi: −log10 of the molar value. “Also recorded” adds a separate entry of the source.

What is called pIC50 is −log10 of the IC50, conventionally taken in molar units. In general, pKi refers to −log10 of the Ki, conventionally taken in molar units.

With `CCCCCCCCCCCCCCCc1ccc(CP(=O)(O)O)cc1` [Compound 22, 4-Pentadecylbenzylphosphonic acid], in experiment [1], the “LPC-dependent invasion of the HUVEC monolayer” value is on record as “dose-dependently inhibited; also recorded: blockage” and the “basal rate of invasion” value is “did not reduce”. The “MM1 cell invasion of the mesothelial monolayer” value in experiment [2] is “inhibited; also recorded: inhibition”. Also, the remaining activity at 10 µM on NPP7 was found to be 96.7%. Further, in experiment [3], the negative logarithm of the IC50 (pIC50) was 6.77 and the “ATX Mechanism of inhibition” value is “Mixed”. Moreover, the pKi in experiment [3] (setting [4]) was 6.55. For the same compound, the negative-log Ki (pKi) in experiment [3] (affinity for free enzyme) was 6.57.
For the compound `CCCCCCCCCCC/C=C/c1ccc2cc(CP(=O)(O)O)ccc2c1` [Compound 30b, (E)-6-Tridec-1-enyl-naphthalen-2-yl-methylphosphonic acid], in experiment [1], the “LPC-dependent invasion of the HUVEC monolayer” value is “dose-dependently inhibited” and the “basal rate of invasion” value is given as “did not reduce”. For the same compound, in experiment [2], the “MM1 cell invasion of the mesothelial monolayer” value is “inhibited”. The remaining activity at 10 µM at NPP7 came to 96.5%. In experiment [3], the pIC50 was 5.85 and the “ATX Mechanism of inhibition” value was “MIXED”. The pKi in experiment [3] (setting [4]) was 6.00. Also, the pKi in experiment [3] (affinity for free enzyme) is 5.82.
